According to patent US20250382344A1, “Soluble GLP1/GIP/NPY2 Receptor Triple Agonists” (Boehringer Ingelheim International GmH, priority 2024, published 2025):
Like-named read-outs stand apart in the source and are kept apart here.

Tests used:
[1] = Solubility in 0.1 M phosphate buffer at pH 7; type: physicochemical; details: 0.1 M phosphate buffer at pH 7, 10 mg/mL final peptide concentration, shaking 2 hours at room temperature, peptides as TFA-salts; measured sample pH 6.5-7.0
hNPY2R = molecular target: T1, hNPY2R (Homo sapiens, UniProt P49146); assay: hNPY2R CreLuc assay in 0.5% and 100% plasma (HEK-293 CRE-luciferase reporter cells); type: cell-based; details: HEK-293 reporter cells
T1 construct: expressed in transfected cells; host or cells: HEK-293 CRE-luciferase reporter cells
T1 sequence (P49146 1-381): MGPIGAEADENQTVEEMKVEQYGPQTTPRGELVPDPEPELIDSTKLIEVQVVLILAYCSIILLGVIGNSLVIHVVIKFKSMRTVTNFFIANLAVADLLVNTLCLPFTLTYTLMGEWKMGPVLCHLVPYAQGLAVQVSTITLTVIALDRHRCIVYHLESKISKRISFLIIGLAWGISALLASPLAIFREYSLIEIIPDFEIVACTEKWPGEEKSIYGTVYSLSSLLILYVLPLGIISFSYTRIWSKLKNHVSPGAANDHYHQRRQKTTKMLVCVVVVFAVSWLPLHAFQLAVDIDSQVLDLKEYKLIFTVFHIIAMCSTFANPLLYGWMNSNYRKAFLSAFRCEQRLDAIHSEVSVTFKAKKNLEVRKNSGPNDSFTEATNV
Text: CHO and HEK-293 recombinant cell lines express a luciferase reporter gene under control of the CAMP responsive element (CRE). As a second recombinant protein the GLP-1 and NPY2 receptors were expressed in the reporter gene HEK cells, and the GIP receptor was expressed in the reporter gene CHO cells, respectively. Stimulation of these recombinant cells with an agonist leads to an increase of intracellular CAMP levels. In the presence of CAMP, the transcription factor CRE binding protein (CREB) binds to the CRE and to the CREB binding protein (CBP), which leads to transcription of the luciferase reporter gene. Peptides upon serial-dilution in 100% DMSO were transferred into 384-well assay plates with 5 μl pre-dispensed assay buffer (1×HBSS, 20 mM HEPES, pH7.4 supplemented with 0.5% human plasma) using acoustic dispensing on a Labcyte ECHO. Cryo-preserved transgenic reporter gene cells were thawed in assay buffer. 20 μl (10.000 cells/well) were added to the plate with the peptides and incubated for 4 hours at 37° C. in a humidified incubator. Following incubation, assay plates are equilibrated to room temperature, followed by addition of 25 μl of Bright-Glo™ Luciferase reagent, incubation at room temperature for 10 minutes and analysis of luminescence (Envision Reader). […] EC50 values were calculated by non-linear regression using sigmoid concentration-response with variable slope.
The same assays were run in the presence of 100% plasma with no additional buffer constituents.

hGIPR = molecular target: T2, hGIPR (Homo sapiens, UniProt P48546); assay: hGIPR CreLuc assay in 0.5% and 100% plasma (CHO CRE-luciferase reporter cells); type: cell-based
T2 construct: expressed in transfected cells; host or cells: CHO CRE-luciferase reporter cells
T2 sequence (P48546 22-466): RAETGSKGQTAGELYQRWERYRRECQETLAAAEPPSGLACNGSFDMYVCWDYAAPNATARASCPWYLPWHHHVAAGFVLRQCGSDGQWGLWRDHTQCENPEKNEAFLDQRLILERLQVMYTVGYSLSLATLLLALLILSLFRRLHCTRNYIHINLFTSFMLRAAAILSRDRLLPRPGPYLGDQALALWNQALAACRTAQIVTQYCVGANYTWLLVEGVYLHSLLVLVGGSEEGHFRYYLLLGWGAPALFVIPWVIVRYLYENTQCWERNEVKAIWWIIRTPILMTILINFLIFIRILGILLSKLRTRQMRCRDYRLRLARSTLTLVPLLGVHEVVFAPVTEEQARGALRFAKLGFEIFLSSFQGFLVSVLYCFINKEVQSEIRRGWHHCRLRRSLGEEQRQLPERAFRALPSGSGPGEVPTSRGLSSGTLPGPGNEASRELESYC

[2] = 100% human plasma, read-out: hNPY2R 100% hP
[3] = 0.5% human plasma, read-out: hGIPR 0.5% hP

solubility at 2 h [1]	EC50 (hNPY2R; [2])	EC50 (hGIPR; [3])	EC50 (hNPY2R; 0.5% human plasma, read-out: hNPY2R 0.5% hP)	EC50 (hGIPR; 100% human plasma, read-out: hGIPR 100% hP)	Structure (SMILES)
4500 µg/mL	119 nM	0.9 nM	–	–	CC[C@H](C)[C@H](NC(=O)[C@H](CC(C)C)NC(=O)[C@H](Cc1c[nH]cn1)NC(=O)[C@H](CCCNC(=N)N)NC(=O)[C@@H](NC(=O)[C@H](Cc1ccccc1)NC(=O)[C@H](CCC(=O)O)NC(=O)C(C)(C)NC(=O)[C@H](CCC(N)=O)NC(=O)[C@H](C)NC(=O)[C@H](CCC(N)=O)NC(=O)[C@H](CCCCN)NC(=O)[C@H](CCC(=O)O)NC(=O)[C@H](CC(C)C)NC(=O)C(C)(C)NC(=O)[C@@H](NC(=O)[C@H](CO)NC(=O)[C@H](Cc1ccc(O)cc1)NC(=O)[C@H](CC(=O)O)NC(=O)[C@H](CO)NC(=O)[C@@H](NC(=O)[C@H](Cc1ccccc1)NC(=O)[C@@H](NC(=O)CNC(=O)[C@H](CCC(=O)O)NC(=O)C(C)(C)NC(=O)[C@@H](N)Cc1ccc(O)cc1)[C@@H](C)O)[C@@H](C)O)[C@@H](C)CC)C(C)C)C(=O)N[C@@H](CC(N)=O)C(=O)N[C@@H](CCCCNC(=O)[C@@H](N)CCCCNC(=O)CC[C@H](NC(=O)CC[C@H](NC(=O)CC[C@H](NC(=O)CC[C@H](NC(=O)CC[C@H](NC(=O)CC[C@H](NC(=O)CCCCCCCCCCCCCCCCCCC(=O)O)C(=O)O)C(=O)O)C(=O)O)C(=O)O)C(=O)O)C(=O)O)C(=O)N[C@@H](CC(C)C)C(=O)N[C@H](C(=O)N[C@@H](CCCNC(=N)N)C(=O)N[C@@H](CCC(N)=O)C(=O)N[C@@H](CCCNC(=N)N)C(=O)N[C@@H](Cc1ccc(O)cc1)C(N)=O)[C@@H](C)O [Compound 39, Y-Aib-E-G-T-F-T-S-D-Y-S-I-Aib-L-E-K-Q-A-Q-Aib-E-F-V-R-H-L-I-N-K(1,3)-L-T-R-Q-R-Y-NH2.C20DA-gGlu-gGlu-gGlu-gGlu-gGlu-gGlu-eLys(1,2)]
10000 µg/mL	125 nM	0.5 nM	–	–	CC[C@H](C)[C@H](NC(=O)[C@H](CC(C)C)NC(=O)[C@H](Cc1c[nH]cn1)NC(=O)[C@H](CCCNC(=N)N)NC(=O)[C@@H](NC(=O)[C@H](Cc1ccccc1)NC(=O)[C@H](C)NC(=O)C(C)(C)NC(=O)[C@H](CCC(N)=O)NC(=O)[C@H](C)NC(=O)[C@H](CCC(N)=O)NC(=O)[C@H](CCCCN)NC(=O)[C@H](CCC(=O)O)NC(=O)[C@H](CC(C)C)NC(=O)C(C)(C)NC(=O)[C@@H](NC(=O)[C@H](CO)NC(=O)[C@H](Cc1ccc(O)cc1)NC(=O)[C@H](CC(=O)O)NC(=O)[C@H](CO)NC(=O)[C@@H](NC(=O)[C@H](Cc1ccccc1)NC(=O)[C@@H](NC(=O)CNC(=O)[C@H](CCC(=O)O)NC(=O)C(C)(C)NC(=O)[C@@H](N)Cc1ccc(O)cc1)[C@@H](C)O)[C@@H](C)O)[C@@H](C)CC)C(C)C)C(=O)N[C@@H](CC(N)=O)C(=O)N[C@@H](CCCCNC(=O)COCCOCCNC(=O)CC[C@H](NC(=O)CC[C@H](NC(=O)CC[C@H](NC(=O)CC[C@H](NC(=O)CC[C@H](NC(=O)CC[C@H](NC(=O)CCCCCCCCCCCCCCCCCCC(=O)O)C(=O)O)C(=O)O)C(=O)O)C(=O)O)C(=O)O)C(=O)O)C(=O)NC(C)(C)C(=O)N[C@H](C(=O)N[C@@H](CCCNC(=N)N)C(=O)N[C@@H](CCC(N)=O)C(=O)N[C@@H](CCCNC(=N)N)C(=O)N[C@@H](Cc1ccc(O)cc1)C(N)=O)[C@@H](C)O [Compound 99, Y-Aib-E-G-T-F-T-S-D-Y-S-I-Aib-L-E-K-Q-A-Q-Aib-A-F-V-R-H-L-I-N-K(1,3)-Aib-T-R-Q-R-Y-NH2.C20DA-gGlu-gGlu-gGlu-gGlu-gGlu-gGlu-OEG(1,2)]
3900 µg/mL	20.3 nM	0.7 nM	13.3 nM	–	CC[C@H](C)[C@H](NC(=O)[C@H](CO)NC(=O)[C@H](Cc1ccc(O)cc1)NC(=O)[C@H](CC(=O)O)NC(=O)[C@H](CO)NC(=O)[C@@H](NC(=O)[C@H](Cc1ccccc1)NC(=O)[C@@H](NC(=O)CNC(=O)[C@H](CCC(=O)O)NC(=O)C(C)(C)NC(=O)[C@@H](N)Cc1ccc(O)cc1)[C@@H](C)O)[C@@H](C)O)C(=O)NC(C)(C)C(=O)N[C@@H](CC(C)C)C(=O)N[C@@H](CCC(=O)O)C(=O)N[C@@H](CCCCN)C(=O)N[C@@H](CCC(N)=O)C(=O)N[C@@H](C)C(=O)N[C@@H](CCC(N)=O)C(=O)NC(C)(C)C(=O)N[C@@H](C)C(=O)N[C@@H](Cc1ccccc1)C(=O)N[C@H](C(=O)N[C@@H](CCCNC(=N)N)C(=O)N[C@@H](Cc1c[nH]cn1)C(=O)N[C@@H](CC(C)C)C(=O)N[C@@H](CC(C)C)C(=O)N[C@@H](CC(N)=O)C(=O)N[C@@H](CCCCNC(=O)[C@@H](N)CCCCNC(=O)CC[C@H](NC(=O)CC[C@H](NC(=O)CC[C@H](NC(=O)CC[C@H](NC(=O)CC[C@H](NC(=O)CC[C@H](NC(=O)CCCCCCCCCCCCCCCCC(=O)O)C(=O)O)C(=O)O)C(=O)O)C(=O)O)C(=O)O)C(=O)O)C(=O)NC(C)(C)C(=O)N[C@H](C(=O)N[C@@H](CCCNC(=N)N)C(=O)N[C@@H](CCC(N)=O)C(=O)N[C@@H](CCCNC(=N)N)C(=O)N[C@@H](Cc1ccc(O)cc1)C(N)=O)[C@@H](C)O)C(C)C [Compound 107, Y-Aib-E-G-T-F-T-S-D-Y-S-I-Aib-L-E-K-Q-A-Q-Aib-A-F-V-R-H-L-L-N-K(1,3)-Aib-T-R-Q-R-Y-NH2.C18DA-gGlu-gGlu-gGlu-gGlu-gGlu-gGlu-eLys(1,2)]
4900 µg/mL	141 nM	0.2 nM	–	8 nM	CC[C@H](C)[C@H](NC(=O)[C@H](CC(C)C)NC(=O)[C@H](Cc1c[nH]cn1)NC(=O)[C@H](CCCNC(=N)N)NC(=O)[C@@H](NC(=O)[C@H](Cc1ccccc1)NC(=O)[C@H](C)NC(=O)C(C)(C)NC(=O)[C@H](CCC(N)=O)NC(=O)[C@H](C)NC(=O)[C@H](CCC(N)=O)NC(=O)[C@H](CCCCN)NC(=O)[C@H](CCC(=O)O)NC(=O)[C@H](CC(C)C)NC(=O)C(C)(C)NC(=O)[C@@H](NC(=O)[C@H](CO)NC(=O)[C@H](Cc1ccc(O)cc1)NC(=O)[C@H](CC(=O)O)NC(=O)[C@H](CO)NC(=O)[C@@H](NC(=O)[C@H](Cc1ccccc1)NC(=O)[C@@H](NC(=O)CNC(=O)[C@H](CCC(=O)O)NC(=O)C(C)(C)NC(=O)[C@@H](N)Cc1ccc(O)cc1)[C@@H](C)O)[C@@H](C)O)[C@@H](C)CC)C(C)C)C(=O)N[C@@H](CC(N)=O)C(=O)N[C@@H](CCCCNC(=O)COCCOCCNC(=O)CC[C@H](NC(=O)CC[C@H](NC(=O)CC[C@H](NC(=O)CC[C@H](NC(=O)CC[C@H](NC(=O)CCCCCCCCCCCCCCCCC(=O)O)C(=O)O)C(=O)O)C(=O)O)C(=O)O)C(=O)O)C(=O)NC(C)(C)C(=O)N[C@H](C(=O)N[C@@H](CCCNC(=N)N)C(=O)N[C@@H](CCC(N)=O)C(=O)N[C@@H](CCCNC(=N)N)C(=O)N[C@@H](Cc1ccc(O)cc1)C(N)=O)[C@@H](C)O [Compound 140, Y-Aib-E-G-T-F-T-S-D-Y-S-I-Aib-L-E-K-Q-A-Q-Aib-A-F-V-R-H-L-I-N-K(1,3)-Aib-T-R-Q-R-Y-NH2.C18DA-gGlu-gGlu-gGlu-gGlu-gGlu-OEG(1,2)]
